In PubChem BioAssay AID330 (DTP/NCI, 2004) one finds T/C data, which are given here for 19 compounds.

“And” between values parts separate entries of the source, which are not always exact repeats. Equal values may be shown once. Toxic doses and inconclusive results are not listed.

In this assay the test system is P388 leukemia ip, CD2F1 mice, survival T/C. The experiment in a line: NCI In Vivo Anticancer Drug Screen. Data for tumor model P388 Leukemia (intraperitoneal) in CD2F1 (CDF1) mice. Conditions: endpoint: median survival time, higher = longer survival. In outline: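 Mice carrying the transplanted tumor received test compound or vehicle. Survival was recorded in each group, and the value is the treated-group measurement divided by that of the vehicle-treated control group.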

Where [1] appears, read: dose: 50.0 mg/kg/injection, schedule: Q01DX005 (ip), vehicle: saline with Tween-80.
[2] abbreviates: dose: 100.0 mg/kg/injection, schedule: Q01DX005 (ip), vehicle: saline with Tween-80.
[3] abbreviates: dose: 25.0 mg/kg/injection, schedule: Q01DX009 (ip), vehicle: distilled water + Tween-80.
[4] abbreviates: dose: 50.0 mg/kg/injection, schedule: Q01DX005 (ip), vehicle: Klucel (hydroxypropylcellulose) (HPC).
Where [5] appears, read: dose: 100.0 mg/kg/injection, schedule: Q01DX005 (ip), vehicle: Klucel (hydroxypropylcellulose) (HPC).
Setting [6] is: dose: 200.0 mg/kg/injection, schedule: Q01DX005 (ip), vehicle: Klucel (hydroxypropylcellulose) (HPC).

With `F[B-](F)(F)F`, the T/C runs as follows: (dose: 12.5 mg/kg/injection, schedule: Q01DX009 (ip), vehicle: gum acacia) 111 % of control; (dose: 25.0 mg/kg/injection, schedule: Q01DX009 (ip), vehicle: gum acacia) 118 % of control; (dose: 50.0 mg/kg/injection, schedule: Q01DX009 (ip), vehicle: gum acacia) 109 % of control and 114 % of control; (dose: 100.0 mg/kg/injection, schedule: Q01DX009 (ip), vehicle: gum acacia) 123 % of control.

Turning to `Cc1ccc(C(=Nc2ccccc2)N=P(c2ccccc2)(c2ccccc2)c2ccccc2)cc1`, the T/C by setting is: (dose: 25.0 mg/kg/injection, schedule: Q01DX005 (ip), vehicle: saline with Tween-80) 103 % of control; under setting [1], 113 % of control and 122 % of control; under setting [2], 120 % of control.

`COc1ccc(C=Nc2c(N)[nH]c(=S)[nH]c2=O)cc1`: the T/C (dose: 100.0 mg/kg/injection, schedule: Q04DX002 (ip), vehicle: saline with Tween-80) is 100 % of control; the T/C (dose: 200.0 mg/kg/injection, schedule: Q04DX002 (ip), vehicle: saline with Tween-80) is 106 % of control; the T/C (dose: 400.0 mg/kg/injection, schedule: Q04DX002 (ip), vehicle: saline with Tween-80) is 107 % of control; the T/C (dose: 600.0 mg/kg/injection, schedule: Q04DX002 (ip), vehicle: saline with Tween-80) is 106 % of control.

As for `Nn1nnnc1-c1ccccc1`, the T/C was 96 % of control (dose: 50.0 mg/kg/injection, schedule: Q01DX009 (ip), vehicle: Klucel (hydroxypropylcellulose) (HPC)); 100 % of control (dose: 100.0 mg/kg/injection, schedule: Q01DX009 (ip), vehicle: Klucel (hydroxypropylcellulose) (HPC)); 95 % of control (dose: 200.0 mg/kg/injection, schedule: Q01DX009 (ip), vehicle: Klucel (hydroxypropylcellulose) (HPC)).

For the compound `O=C(CN1CC1)NCCCCCCCCCNC(=O)CN1CC1`, the T/C by setting is: (dose: 2.5 mg/kg/injection, schedule: Q01DX009 (ip), vehicle: saline with Tween-80) 90 % of control; (dose: 5.0 mg/kg/injection, schedule: Q01DX009 (ip), vehicle: saline with Tween-80) 150 % of control; (dose: 10.0 mg/kg/injection, schedule: Q01DX009 (ip), vehicle: saline with Tween-80) 186 % of control.

In the case of `[Cl][Sn]1([Cl])[CH2]CCCCCC[CH2][Sn]([Cl])([Cl])[CH2]CCCCCC[CH2]1`, the T/C reads like this: under setting [1], 92 % of control; under setting [2], 92 % of control.

`CNC(=S)NNC(=O)C(Cc1ccc([N+](=O)[O-])cc1)C(=O)NNC(=S)NC`: the T/C is, setting by setting: (dose: 100.0 mg/kg/injection, schedule: Q04DX002 (ip), vehicle: saline) 98 % of control; (dose: 200.0 mg/kg/injection, schedule: Q04DX002 (ip), vehicle: saline) 98 % of control; (dose: 400.0 mg/kg/injection, schedule: Q04DX002 (ip), vehicle: saline) 90 % of control.

In the case of `O=C(c1ccccc1)C1C(c2ccccc2)C2(CCCCC2=O)C(c2ccccc2)CC1(O)c1ccccc1` (configuration not stated), the T/C was 98 % of control (dose: 3.12 mg/kg/injection, schedule: Q01DX001 (ip), vehicle: Klucel (hydroxypropylcellulose) (HPC)); 86 % of control (dose: 6.25 mg/kg/injection, schedule: Q01DX001 (ip), vehicle: Klucel (hydroxypropylcellulose) (HPC)); 86 % of control (dose: 12.5 mg/kg/injection, schedule: Q01DX001 (ip), vehicle: Klucel (hydroxypropylcellulose) (HPC)); 86 % of control (dose: 25.0 mg/kg/injection, schedule: Q01DX001 (ip), vehicle: Klucel (hydroxypropylcellulose) (HPC)).

As for `Cl/N=C1/C=CC=C/C1=N/Cl`, the T/C reads like this: (dose: 50.0 mg/kg/injection, schedule: Q01DX005 (ip), vehicle: saline) 106 % of control; (dose: 100.0 mg/kg/injection, schedule: Q01DX005 (ip), vehicle: saline) 104 % of control; (dose: 200.0 mg/kg/injection, schedule: Q01DX005 (ip), vehicle: saline) 101 % of control.

As for `Cn1c2ccccc2c2ccc3c(c21)C(=O)C=CC3=O`, the T/C under setting [3] was 120 % of control.

In the case of `CC(=O)[O][Sn]([CH3])([CH3])[c]1ccccc1`, the T/C is, setting by setting: (dose: 1.56 mg/kg/injection, schedule: Q01DX009 (ip), vehicle: saline) 98 % of control and 104 % of control; (dose: 3.12 mg/kg/injection, schedule: Q01DX009 (ip), vehicle: saline) 98 % of control and 110 % of control; (dose: 6.25 mg/kg/injection, schedule: Q01DX009 (ip), vehicle: saline) 98 % of control and 117 % of control and 96 % of control; (dose: 12.5 mg/kg/injection, schedule: Q01DX009 (ip), vehicle: saline) 104 % of control and 120 % of control.

Turning to `COc1ccc(/C=C(\C)[N+](=O)[O-])cc1OC`, the T/C is, setting by setting: (dose: 12.5 mg/kg/injection, schedule: Q01DX009 (ip), vehicle: distilled water + Tween-80) 100 % of control; under setting [3], 121 % of control; (dose: 50.0 mg/kg/injection, schedule: Q01DX009 (ip), vehicle: distilled water + Tween-80) 115 % of control; (dose: 100.0 mg/kg/injection, schedule: Q01DX009 (ip), vehicle: distilled water + Tween-80) 115 % of control.

Consider `CS(=O)(=O)N/N=C1/C=C2C/C(=N\NS(C)(=O)=O)C=C2C1`, for which the T/C is 92 % of control under setting [4], 96 % of control under setting [5] and 95 % of control under setting [6].

Turning to `CC(C)CCN=C(N)N=C(N)N`, the T/C by setting is: (dose: 60.0 mg/kg/injection, schedule: Q01DX005 (ip), vehicle: saline) 100 % of control; (dose: 120.0 mg/kg/injection, schedule: Q01DX005 (ip), vehicle: saline) 109 % of control.

With `C/C(=N\O)C(O)c1ccccc1` (configuration not stated), the T/C (dose: 100.0 mg/kg/injection, schedule: Q01DX009 (ip), vehicle: saline) is 88 % of control; the T/C (dose: 200.0 mg/kg/injection, schedule: Q01DX009 (ip), vehicle: saline) is 93 % of control; the T/C (dose: 400.0 mg/kg/injection, schedule: Q01DX009 (ip), vehicle: saline) was 100 % of control.

Take `O=C(O)CC(=O)O.[NH-]CC[NH-].[Pt+2]`: the T/C is, setting by setting: (dose: 6.25 mg/kg/injection, schedule: Q04DX002 (ip), vehicle: saline with Tween-80) 111 % of control; (dose: 25.0 mg/kg/injection, schedule: Q01DX009 (ip), vehicle: saline) 211 % of control; (dose: 25.0 mg/kg/injection, schedule: Q04DX002 (ip), vehicle: saline with Tween-80) 158 % of control; (dose: 50.0 mg/kg/injection, schedule: Q01DX009 (ip), vehicle: saline) 94 % of control.

On to `COc1ccc(C2Oc3cc(O)c4c(=O)c5c(OC)cccc5oc4c3OC2CO)cc1O` (configuration not stated), for which the T/C reads like this: (dose: 6.25 mg/kg/injection, schedule: Q01DX009 (ip), vehicle: saline + alcohol) 111 % of control; (dose: 12.5 mg/kg/injection, schedule: Q01DX009 (ip), vehicle: saline + alcohol) 100 % of control; (dose: 25.0 mg/kg/injection, schedule: Q01DX009 (ip), vehicle: saline + alcohol) 100 % of control.

As for `CCN(CC)C(=Nc1ccc(NC(=O)c2ccc(C(=O)Nc3ccc(N=C(c4ccccc4)N(CC)CC)cc3)cc2)cc1)c1ccccc1`, the T/C is 96 % of control under setting [4], 97 % of control under setting [5] and 96 % of control under setting [6].

On to `Cc1ccc2c(Nc3ccc(NS(C)(=O)=O)cc3)c3ccccc3nc2c1C`, for which the T/C by setting is: (dose: 0.59 mg/kg/injection, schedule: Q01DX009 (ip), vehicle: saline with Tween-80) 110 % of control; (dose: 5.0 mg/kg/injection, schedule: Q01DX009 (ip), vehicle: other) 154 % of control; (dose: 10.0 mg/kg/injection, schedule: Q01DX009 (ip), vehicle: other) 165 % of control; (dose: 19.4 mg/kg/injection, schedule: Q04DX003 (ip), vehicle: water) 123 % of control; (dose: 20.0 mg/kg/injection, schedule: Q01DX009 (ip), vehicle: other) 197 % of control; (dose: 22.0 mg/kg/injection, schedule: Q04DX003 (ip), vehicle: saline with Tween-80) 154 % of control. Besides, the T/C is 168 % of control (dose: 33.0 mg/kg/injection, schedule: Q04DX003 (ip), vehicle: saline with Tween-80); 195 % of control and 218 % of control (dose: 75.0 mg/kg/injection, schedule: Q04DX003 (ip), vehicle: saline with Tween-80); 155 % of control (dose: 90.0 mg/kg/injection, schedule: Q04DX003 (ip), vehicle: water); 254 % of control (dose: 150.0 mg/kg/injection, schedule: Q04DX003 (ip), vehicle: saline with Tween-80); 86 % of control (dose: 300.0 mg/kg/injection, schedule: Q04DX003 (ip), vehicle: saline with Tween-80).
